Where a name gives a salt, the structure may show the parent alone.
Legend:
[1] = test system: serotonin 5HT2A receptors; conditions: 3T3 fibroblasts expressing 5HT2A; cited from earlier work
[2] = test system: amyloid precursor protein (APPs); conditions: guinea pigs, in vivo, repeat administration; cited from earlier work
[3] = target: T1, human 5HT2C receptor (Homo sapiens, UniProt P28335); experiment: Intracellular IP3 Accumulation Assay; format: cell-based; conditions: HEK293 cells transfected with human 5HT2C receptor; averages of at least two trials; read-out: 5-HT2C (IC50) IP Accumulation Assay
T1 construct: expressed in transfected cells; host or cells: HEK293
T1 sequence (P28335 33-458): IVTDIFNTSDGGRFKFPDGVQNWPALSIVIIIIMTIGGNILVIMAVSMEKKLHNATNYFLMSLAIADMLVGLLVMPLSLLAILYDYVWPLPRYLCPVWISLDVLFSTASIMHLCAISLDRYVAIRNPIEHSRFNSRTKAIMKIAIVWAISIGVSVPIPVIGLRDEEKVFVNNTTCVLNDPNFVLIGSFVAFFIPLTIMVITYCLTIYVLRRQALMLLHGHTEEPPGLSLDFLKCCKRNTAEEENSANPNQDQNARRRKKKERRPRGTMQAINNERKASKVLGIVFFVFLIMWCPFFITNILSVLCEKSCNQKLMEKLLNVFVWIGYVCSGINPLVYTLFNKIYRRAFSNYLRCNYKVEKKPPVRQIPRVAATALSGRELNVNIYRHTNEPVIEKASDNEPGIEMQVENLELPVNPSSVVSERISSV
Experimental: Intracellular IP3 Accumulation Assay
HEK293 cells were transfected in 15 cm sterile dishes with or without (control) 16 ug of human 5HT2C receptor cDNA [Saltzman, A. G., et al. Biochem. Biophys. Res. Commun. 181, 1469-1478 (1991)] using 25 ul of lipofectamine. Cells were then incubated for 3-4 hours at 37° C./5% CO2 and then transfection media was removed and replaced with 100 μL of DMEM. Cells were then plated onto […] sterile dishes. The next day cells were plated into 96 well PDL microtiter plates at a density of 55K/0.2 ml. Six hours latter, media was exchanged with [^3H]inositol (0.25 μCi/well) in inositol free DMEM and plates were incubated at 37° C./5% CO2 overnight. The next day, wells were aspirated and 200 μl of DMEM containing test compound, 10 μM pargyline, and 10 mM LiCl was added to appropriate wells. Plates were then incubated at 37° C./5% CO2 for three hours followed aspiration and by addition of fresh ice cold stop solution (1M KOH, 19 mM Na-borate, 3.8 mM EDTA) to each well. Plates were kept on ice for 5-10 min and the wells were neutralized by addition of 200 μL of fresh ice cold neutralization solution (7.5% HCl). Plates were then frozen until further processing is desired. The lysate was then transferred into 1.5 mL Eppendorf tubes and 1 mL of chloroform/methanol (1:2) was added/tube. […]

Compound: NCCc1c[nH]c2ccc(O)cc12 [Example 5-HT, 5-hydroxytryptamine]
- Maximal stimulation of APPs secretion [1]: about 4 fold

Compound: C[C@H](N)Cc1cccc(C(F)(F)F)c1 [dexnorfenfluramine]
- amyloid precursor protein (APPs) secretion [2]: stimulated
- levels of Aβ production [2]: reducing

Compound: C[C@@H]1CNCCc2cc(Cc3ccccc3)c(Cl)cc21 [Example 13, (S)-7-Benzyl-8-chloro-1-methyl-2,3,4,5-tetrahydro-1H-benzo[d]azepine hydrochloride]
- IC50 [3]: 30 nM

Compound: COc1cc2c(cc1Cc1ccccc1)C(C)CNCC2 (racemic) [Example 14, (R,S)-8-Benzyl-7-methoxy-1-methyl-2,3,4,5-tetrahydro-1H-benzo[d]azepine hydrochloride]
- IC50 [3]: 7 nM
